Blank lines part the entries; values can stand above or below the compound they belong to.
Experiments:
[1] = test system: U-937; experiment: Antiproliferative activity against human U937 cells after 24 hrs by WST-8 assay; assay type: functional, cell-based; conditions: U-937, 24 h
[2] = test system: U-937; experiment: Antiproliferative activity against human U937 cells after 48 hrs by WST-8 assay; assay type: functional, cell-based; conditions: U-937, 48 h
[3] = test system: U-937; experiment: Antiproliferative activity against human U937 cells after 72 hrs by WST-8 assay; assay type: functional, cell-based; conditions: U-937, 72 h
[4] = test system: HT-1080; experiment: Antiproliferative activity against human HT1080 cells at 10 uM after 24 hrs by calcein-AM assay; assay type: functional; conditions: HT-1080, 24 h
[5] = test system: HT-1080; experiment: Antiproliferative activity against human HT1080 cells at 3 uM after 24 hrs by calcein-AM assay; assay type: functional; conditions: HT-1080, 24 h
[6] = test system: HT-1080; experiment: Antiproliferative activity against human HT1080 cells at 10 uM after 24 hrs by MTT assay; assay type: functional; conditions: HT-1080, 24 h
[7] = test system: HT-1080; experiment: Antiproliferative activity against human HT1080 cells at 30 uM after 72 hrs by MTT assay; assay type: functional; conditions: HT-1080, 72 h
[8] = test system: HT-1080; experiment: Antiproliferative activity against human HT1080 cells at 3 uM after 24 hrs by MTT assay; assay type: functional; conditions: HT-1080, 24 h
[9] = test system: HT-1080; experiment: Inhibition of invasion of human HT1080 cells at 1 uM after 24 hrs; assay type: functional; conditions: HT-1080, 24 h
[10] = test system: HT-1080; experiment: Antiproliferative activity against human HT1080 cells at 10 uM after 72 hrs by calcein-AM assay; assay type: functional; conditions: HT-1080, 72 h
[11] = test system: HT-1080; experiment: Antiproliferative activity against human HT1080 cells at 30 uM after 48 hrs by calcein-AM assay; assay type: functional; conditions: HT-1080, 48 h
[12] = test system: HT-1080; experiment: Antiproliferative activity against human HT1080 cells at 10 uM after 48 hrs by calcein-AM assay; assay type: functional; conditions: HT-1080, 48 h
[13] = test system: HT-1080; experiment: Antiproliferative activity against human HT1080 cells at 1 uM after 24 hrs by MTT assay; assay type: functional; conditions: HT-1080, 24 h
[14] = test system: HT-1080; experiment: Antiproliferative activity against human HT1080 cells at 30 uM after 24 hrs by calcein-AM assay; assay type: functional; conditions: HT-1080, 24 h
[15] = test system: HT-1080; experiment: Antiproliferative activity against human HT1080 cells at 10 uM after 48 hrs by MTT assay; assay type: functional; conditions: HT-1080, 48 h
[16] = test system: HT-1080; experiment: Antiproliferative activity against human HT1080 cells at 3 uM after 72 hrs by calcein-AM assay; assay type: functional; conditions: HT-1080, 72 h
[17] = test system: HT-1080; experiment: Antiproliferative activity against human HT1080 cells at 3 uM after 48 hrs by calcein-AM assay; assay type: functional; conditions: HT-1080, 48 h
[18] = test system: HT-1080; experiment: Antiproliferative activity against human HT1080 cells at 30 uM after 48 hrs by MTT assay; assay type: functional; conditions: HT-1080, 48 h
[19] = test system: HT-1080; experiment: Inhibition of invasion of human HT1080 cells at 10 uM after 24 hrs; assay type: functional; conditions: HT-1080, 24 h
[20] = test system: HT-1080; experiment: Antiproliferative activity against human HT1080 cells at 30 uM after 72 hrs by calcein-AM assay; assay type: functional; conditions: HT-1080, 72 h
[21] = test system: HT-1080; experiment: Inhibition of invasion of human HT1080 cells at 3 uM after 24 hrs; assay type: functional; conditions: HT-1080, 24 h
[22] = test system: HT-1080; experiment: Antiproliferative activity against human HT1080 cells at 1 uM after 48 hrs by MTT assay; assay type: functional; conditions: HT-1080, 48 h
[23] = test system: HT-1080; experiment: Antiproliferative activity against human HT1080 cells at 1 uM after 48 hrs by calcein-AM assay; assay type: functional; conditions: HT-1080, 48 h
[24] = test system: HT-1080; experiment: Antiproliferative activity against human HT1080 cells at 30 uM after 24 hrs by MTT assay; assay type: functional; conditions: HT-1080, 24 h
[25] = test system: HT-1080; experiment: Antiproliferative activity against human HT1080 cells at 1 uM after 72 hrs by calcein-AM assay; assay type: functional; conditions: HT-1080, 72 h
[26] = test system: HT-1080; experiment: Antiproliferative activity against human HT1080 cells at 1 uM after 72 hrs by MTT assay; assay type: functional; conditions: HT-1080, 72 h
[27] = test system: HT-1080; experiment: Antiproliferative activity against human HT1080 cells at 3 uM after 72 hrs by MTT assay; assay type: functional; conditions: HT-1080, 72 h
[28] = test system: HT-1080; experiment: Antiproliferative activity against human HT1080 cells at 1 uM after 24 hrs by calcein-AM assay; assay type: functional; conditions: HT-1080, 24 h
[29] = test system: HT-1080; experiment: Inhibition of invasion of human HT1080 cells at 30 uM after 24 hrs; assay type: functional; conditions: HT-1080, 24 h
[30] = test system: HT-1080; experiment: Antiproliferative activity against human HT1080 cells at 10 uM after 72 hrs by MTT assay; assay type: functional; conditions: HT-1080, 72 h
[31] = test system: HT-1080; experiment: Antiproliferative activity against human HT1080 cells at 3 uM after 48 hrs by MTT assay; assay type: functional; conditions: HT-1080, 48 h

Structure (SMILES): CC(=O)O[C@H]1C(=O)[C@@]2(C)[C@H]([C@H](OC(=O)c3ccccc3)[C@]3(O)C[C@H](OC(=O)[C@H](O)[C@@H](NC(=O)c4ccccc4)c4ccccc4)C(C)=C1C3(C)C)[C@]1(OC(C)=O)CO[C@@H]1C[C@@H]2O [PACLITAXEL]
inhibition at 10 µM [4]: 12.4%
inhibition at 3 µM [5]: 10.8%
inhibition at 10 µM [6]: 12.2%
inhibition at 30 µM [7]: 79.9%
inhibition at 3 µM [8]: 12.6%
inhibition at 1 µM [9]: 50.5%
inhibition at 10 µM [10]: 87.6%
inhibition at 30 µM [11]: 70%
inhibition at 10 µM [12]: 70.9%
inhibition at 1 µM [13]: 4.7%
inhibition at 30 µM [14]: 10.3%
inhibition at 10 µM [15]: 50%
inhibition at 3 µM [16]: 87%
inhibition at 3 µM [17]: 64.4%
inhibition at 30 µM [18]: 50.3%
inhibition at 10 µM [19]: 87.8%
inhibition at 30 µM [20]: 87.7%
inhibition at 3 µM [21]: 79.8%
inhibition at 1 µM [22]: 43.7%
inhibition at 1 µM [23]: 46.2%
inhibition at 30 µM [24]: 10.3%
inhibition at 1 µM [25]: 59.8%
inhibition at 1 µM [26]: 65.6%
inhibition at 3 µM [27]: 79.8%
inhibition at 1 µM [28]: -0.5%
inhibition at 30 µM [29]: 89.2%
inhibition at 10 µM [30]: 81.4%
inhibition at 3 µM [31]: 48.7%

Structure (SMILES): O=c1c(-c2ccc(O)c(O)c2)coc2cc(O)cc(O)c12 [OROBOL]
IC50 [1]: 73 µM
IC50 [2]: > 100 µM
IC50 [3]: > 100 µM

Structure (SMILES): COc1cc(OC)c2c(c1)O[C@H](c1ccc(O)cc1)CC2
IC50 [1]: 39 µM
IC50 [2]: 40 µM
IC50 [3]: 10 µM

Structure (SMILES): CC(C)=CCc1c(O)cc2occ(-c3ccc(O)cc3)c(=O)c2c1O [WIGHTEONE]
IC50 [1]: 28 µM
IC50 [2]: 35 µM
IC50 [3]: 32 µM

Structure (SMILES): COc1ccc2c(c1)OC[C@@]1(OC)c3cc4c(cc3O[C@@H]21)OCO4 [ERYCIBENIN C]
IC50 [1]: > 100 µM
IC50 [2]: > 100 µM
IC50 [3]: > 100 µM

Structure (SMILES): CC[C@@]1(O)C(=O)OCc2c1cc1n(c2=O)Cc2cc3ccccc3nc2-1 [CAMPTOTHECIN]
IC50 [1]: 0.68 µM
IC50 [2]: 0.032 µM
IC50 [3]: 0.015 µM

The remaining lines, values ahead:

IC50 [1]: > 100 µM
IC50 [2]: > 100 µM
IC50 [3]: > 100 µM
Structure (SMILES): O=C1C[C@@H](c2ccc(O)c(O)c2)Oc2cc(O)cc(O)c21 [ERIODICTYOL]

IC50 [1]: > 100 µM
IC50 [2]: > 100 µM
IC50 [3]: > 100 µM
Structure (SMILES): Oc1ccc2c(c1)OC[C@H]1c3cc4c(cc3O[C@@H]21)OCO4 [MAACKIAIN]

IC50 [1]: > 100 µM
IC50 [2]: > 100 µM
IC50 [3]: > 100 µM
Structure (SMILES): COc1ccc2c(c1)O[C@H]1c3ccc(OC)cc3OC[C@@H]21 [HOMOPTEROCARPIN]

IC50 [1]: 29 µM
IC50 [2]: 21 µM
IC50 [3]: 18 µM
Structure (SMILES): COc1ccc([C@@H]2CCc3c(OC)cc(OC)cc3O2)cc1

IC50 [1]: 68 µM
IC50 [2]: 85 µM
IC50 [3]: 74 µM
Structure (SMILES): COc1cc(-c2coc3cc(O)cc(O)c3c2=O)ccc1O [3'-O-METHYLOROBOL]

IC50 [1]: > 100 µM
IC50 [2]: > 100 µM
IC50 [3]: > 100 µM
Structure (SMILES): COc1ccc2c(c1)O[C@@H]1[C@H]2COC2=CC(=O)CC[C@@]21O

IC50 [1]: > 100 µM
IC50 [2]: 72 µM
IC50 [3]: 48 µM
Structure (SMILES): COc1cc(O)c(-c2coc3cc(O)ccc3c2=O)cc1OC

IC50 [1]: > 100 µM
IC50 [2]: > 100 µM
IC50 [3]: > 100 µM
Structure (SMILES): COc1ccc2c(=O)c(-c3ccc(OC)c(OC)c3)coc2c1

IC50 [1]: 50 µM
IC50 [2]: 44 µM
IC50 [3]: 45 µM
Structure (SMILES): COc1ccc(-c2coc3cc(O)ccc3c2=O)cc1 [FORMONONETIN]

— ChEMBL document CHEMBL1139057, “Rotenoids and flavonoids with anti-invasion of HT1080, anti-proliferation of U937, and differentiation-inducing activity in HL-60 from Erycibe expansa” (Bioorg Med Chem, 2007)
